# Measurements as given in patent US4122184A, “Benzimidazole insecticides” (priority 1977, dated 1978).
# Assays:
# Assay type in all cases: in vivo
# Bagworms [1] = experiment: Field trial, contact poison test; set-up: key: 0-9 scale: 0 = 0-10% mortality, 9 = 91-100% mortality
# Excerpt: Infested plants are placed in 6 oz. prescription bottles filled with water to keep them from wilting. Cellucotton is wrapped around the plant stem and squeezed into the bottle neck to prevent the insects from drowning.
# A DeVilbiss Special Atomizer (5004) is used at 10 psi to spray the test plant with different concentrations of compounds. The atomizer is held at arm's length to prevent blowing the insects off the host plant. After treating, the bottles are placed on a table covered with brown wrapping paper to catch the dead insects as they drop from the plant. The plants are spaced so the leaves or plants are not touching one another.
# The results are read at 24, 48, and 72 hours when applicable. The rating scale is 0 to 9 where 0 = 0-10 percent and 9 = 91-100 percent mortality.
# Using the above methods, field trials were carried out against species of 5 orders of insects. The results, which are summarized in the following tables, give the average mortality for the particular insect with a given benzimidazole for each concentration employed. […] These tables contain all results obtained during the summer trials.
# Eastern Tent Caterpillar [2] = experiment: Field trial, topical application
# Outline: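 1 μL benzimidazole solution of set microgram content applied topically to larvae or adults. Mortality read at 24, 48 and 72 h where applicable, rated 0-9 (0 = 0-10%, 9 = 91-100%); values are average mortality per concentration.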
# Eastern Tent Caterpillar [3] = experiment: Field trial, contact poison test
# Outline: (§1)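 Each infested plant sits in a water-filled bottle to prevent wilting, and the test compound is then atomized onto it at 10 psi at various concentrations. Falling dead insects are collected, and mortality is rated 0 (0-10%) to 9 (91-100%) at up to 72 h.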
# Armyworm, P. Unipuncta [4] = experiment: Field trial, contact poison test
# Outline: as §1
# Walnut Caterpillar [5] = experiment: Field trial, contact poison test
# Outline: as §1
# Elm Leaf Beetle [6] = experiment: Field trial, contact poison test
# Outline: as §1
# Eastern Tent Caterpillar [7] = experiment: Field trial, stomach poison test
# Outline: (§2)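 Stomach-poison feeding test on leaves taken from the infested plant and treated by atomizer spraying at 10 psi or by dipping, then air-dried. Dishes hold five or ten insects, with one or two replicates per rate; reported values average mortality on a 0 to 9 rating scale, read at 24, 48 and 72 hours.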
# Armyworm, P. Unipuncta [8] = experiment: Field trial, stomach poison test
# Outline: as §2
# Walnut Caterpillar [9] = experiment: Field trial, stomach poison test
# Outline: as §2
# Bagworms [10] = experiment: Field trial, stomach poison test
# Outline: as §2
# Elm Leaf Beetle [11] = experiment: Field trial, stomach poison test
# Outline: as §2
# [12] = system: Red-Legged Grasshopper Adults; experiment: Field trial, stomach poison test
# Outline: as §2
# Variegated Cutworm = experiment: Field trial (first summer), stomach; settings: 500 ppm
# Cabbage Looper = experiment: Field trial (first summer), stomach; settings: 500 ppm
# Tussock Moth = experiment: Field trial (first summer), contact; settings: 750 ppm
# Buffalo Tree Hopper = experiment: Field trial (first summer), contact; settings: 125 ppm
# American Roach = experiment: Field trial (first summer), contact; settings: 500 ppm
# German Roach = experiment: Field trial (first summer), contact; settings: 500 ppm
# Citrus Rust Mite (CRM) = experiment: Miticide test, acute mortality, foliar spray
# Description: Citrus cuttings were obtained and prepared for testing within 24 hours prior to inoculation with citrus rust mites. To prepare the cuttings, terminals of branches 12 to 14 inches in length were cut from temple orange trees, immediately placed in tap water and taken into the laboratory. Uniform hardwood cuttings, 3 to 4 inches in length, were cut from the branches, all but one hardened leaf was removed from the cuttings, and the remaining leaf was wiped clean with a cotton pad soaked in 10% ethanol solution. Each cutting was immediately placed in tap water in a test tube with the closed leaf extending out of the test tube. Then, a ring of melted lanolin was applied around the petiole to prevent migration of mites from the leaf. One cutting was used for each replicate.
# When the leaves were dry immediately after cleaning, citrus rust mites were transferred to the test leaves by cutting a heavily infested colony leaf (from a source colony maintained on citrus seedlings) into 20 to 22 sections (approximately 0.25 by 0.5 inches in size) and using forceps to place 1 section on each leaf cutting. As the section became desiccated the mites moved to the whole leaf and in 20 hours the sections were removed from the leaves for treatment application.
# Treatments were applied within 24 hours after inoculation by removing the cuttings from the test tube and submerging the leaves in the treatment solution for 5 seconds by hand and immediately returning the cutting to the test tube. […]
# The treated cuttings were stored in the greenhouse for 24 hours before evaluation under a binocular disecting microscope in the laboratory. In evaluating the results of the miticide test, each treated cutting was removed from the test tube, observed for live and dead mites at 14 × magnification, and returned immediately to the test tube. A scale of 0-9 was used as before.
smiles,measurement,setting,value
"O=[N+]([O-])c1cc(C(F)(F)F)cc2nc(C(F)(F)F)[nH]c12 [A, 2,6-bis(trifluoromethyl)-4-nitrobenzimidazole]",average mortality rating,Bagworms [1]; 125 ppm,0 (0-10 percent)
same,average mortality rating,Bagworms [1]; 250 ppm,4
same,average mortality rating,Bagworms [1]; 500 ppm,4
same,average mortality rating,Bagworms [1]; 750 ppm,1
same,average mortality rating,Bagworms [1]; 1000 ppm,0 (0-10 percent)
same,average mortality rating,Bagworms [1]; 1500 ppm,0 (0-10 percent)
same,average mortality rating,Eastern Tent Caterpillar [2]; 0.3 μg/μl,3
same,average mortality rating,Eastern Tent Caterpillar [2]; 0.6 μg/μl,1
same,average mortality rating,Eastern Tent Caterpillar [2]; 1.2 μg/μl,3
same,average mortality rating,Eastern Tent Caterpillar [3]; 50 ppm,0 (0-10 percent)
same,average mortality rating,Eastern Tent Caterpillar [3]; 100 ppm,3
same,average mortality rating,Eastern Tent Caterpillar [3]; 250 ppm,5
same,average mortality rating,Eastern Tent Caterpillar [3]; 500 ppm,5
same,average mortality rating,"Armyworm, P. Unipuncta [4]; 125 ppm",0 (0-10 percent)
same,average mortality rating,"Armyworm, P. Unipuncta [4]; 250 ppm",1
same,average mortality rating,"Armyworm, P. Unipuncta [4]; 500 ppm",3
same,average mortality rating,Walnut Caterpillar [5]; 25 ppm,1
same,average mortality rating,Walnut Caterpillar [5]; 50 ppm,1
same,average mortality rating,Walnut Caterpillar [5]; 100 ppm,1
same,average mortality rating,Walnut Caterpillar [5]; 250 ppm,7
same,average mortality rating,Elm Leaf Beetle [6]; 250 ppm,0 (0-10 percent)
same,average mortality rating,Elm Leaf Beetle [6]; 500 ppm,7
same,average mortality rating,Elm Leaf Beetle [6]; 1000 ppm,9 (91-100 percent mortality)
same,average mortality rating,Eastern Tent Caterpillar [7]; 250 ppm,0 (0-10 percent)
same,average mortality rating,Eastern Tent Caterpillar [7]; 500 ppm,0 (0-10 percent)
same,average mortality rating,Eastern Tent Caterpillar [7]; 1000 ppm,0 (0-10 percent)
same,average mortality rating,"Armyworm, P. Unipuncta [8]; 125 ppm",9 (91-100 percent mortality)
same,average mortality rating,"Armyworm, P. Unipuncta [8]; 250 ppm",9 (91-100 percent mortality)
same,average mortality rating,"Armyworm, P. Unipuncta [8]; 500 ppm",9 (91-100 percent mortality)
same,average mortality rating,Walnut Caterpillar [9]; 50 ppm,1
same,average mortality rating,Walnut Caterpillar [9]; 100 ppm,3
same,average mortality rating,Walnut Caterpillar [9]; 250 ppm,3
same,average mortality rating,Bagworms [10]; 500 ppm,1
same,average mortality rating,Bagworms [10]; 750 ppm,0 (0-10 percent)
same,average mortality rating,Bagworms [10]; 1000 ppm,0 (0-10 percent)
same,average mortality rating,Bagworms [10]; 1500 ppm,1
same,average mortality rating,Bagworms [10]; 2500 ppm,0 (0-10 percent)
same,average mortality rating,Bagworms [10]; 5000 ppm,1
same,average mortality rating,Elm Leaf Beetle [11]; 125 ppm,3
same,average mortality rating,Elm Leaf Beetle [11]; 250 ppm,0 (0-10 percent)
same,average mortality rating,Elm Leaf Beetle [11]; 500 ppm,5
same,average mortality rating,[12]; 10 ppm,0 (0-10 percent)
same,average mortality rating,[12]; 25 ppm,4
same,average mortality rating,[12]; 50 ppm,6
same,insect mortality rating,Variegated Cutworm,5
same,insect mortality rating,Cabbage Looper,9 (91-100 percent mortality)
same,insect mortality rating,Tussock Moth,9 (91-100 percent mortality)
same,insect mortality rating,Buffalo Tree Hopper,9 (91-100 percent mortality)
same,insect mortality rating,American Roach,9 (91-100 percent mortality)
same,insect mortality rating,German Roach,8
"CCCCCCOC(=O)n1c(C(F)(F)F)nc2c([N+](=O)[O-])cc(C(F)(F)F)cc21 [E, n-hexyl 2,6-bis(trifluoromethyl)-4-nitro-1-benzimidazolecarboxylate]",acute mortality rating,"Citrus Rust Mite (CRM); 6.25 ppm, after 48 hours",4
same,acute mortality rating,"Citrus Rust Mite (CRM); 12.5 ppm, after 48 hours",8
same,acute mortality rating,"Citrus Rust Mite (CRM); 25 ppm, after 48 hours",9 (91-100 percent mortality)
same,acute mortality rating,"Citrus Rust Mite (CRM); 50 ppm, after 48 hours",9 (91-100 percent mortality)
same,acute mortality rating,"Citrus Rust Mite (CRM); 100 ppm, after 48 hours",9 (91-100 percent mortality)
"CC(C)OC(=O)n1c(C(F)(F)F)nc2c([N+](=O)[O-])cc(C(F)(F)F)cc21 [I, isopropyl 2,6-bis(trifluoromethyl)-4-nitro-1-benzimidazolecarboxylate]",average mortality rating,Bagworms [1]; 125 ppm,1
same,average mortality rating,Bagworms [1]; 250 ppm,4
same,average mortality rating,Bagworms [1]; 500 ppm,5
same,average mortality rating,Bagworms [1]; 750 ppm,2
same,average mortality rating,Bagworms [1]; 1000 ppm,1
same,average mortality rating,Bagworms [1]; 1500 ppm,0 (0-10 percent)
same,average mortality rating,Eastern Tent Caterpillar [2]; 0.3 μg/μl,0 (0-10 percent)
same,average mortality rating,Eastern Tent Caterpillar [2]; 0.6 μg/μl,1
same,average mortality rating,Eastern Tent Caterpillar [2]; 1.2 μg/μl,2
same,average mortality rating,Eastern Tent Caterpillar [3]; 50 ppm,0 (0-10 percent)
same,average mortality rating,Eastern Tent Caterpillar [3]; 100 ppm,1
same,average mortality rating,Eastern Tent Caterpillar [3]; 250 ppm,3
same,average mortality rating,Eastern Tent Caterpillar [3]; 500 ppm,6
same,average mortality rating,Eastern Tent Caterpillar [3]; 1000 ppm,5
same,average mortality rating,"Armyworm, P. Unipuncta [4]; 125 ppm",0 (0-10 percent)
same,average mortality rating,"Armyworm, P. Unipuncta [4]; 250 ppm",0 (0-10 percent)
same,average mortality rating,"Armyworm, P. Unipuncta [4]; 500 ppm",0 (0-10 percent)
same,average mortality rating,Walnut Caterpillar [5]; 25 ppm,0 (0-10 percent)
same,average mortality rating,Walnut Caterpillar [5]; 50 ppm,1
same,average mortality rating,Walnut Caterpillar [5]; 100 ppm,2
same,average mortality rating,Walnut Caterpillar [5]; 250 ppm,3
same,average mortality rating,Elm Leaf Beetle [6]; 250 ppm,1
same,average mortality rating,Elm Leaf Beetle [6]; 500 ppm,1
same,average mortality rating,Elm Leaf Beetle [6]; 1000 ppm,1
same,acute mortality rating,"Citrus Rust Mite (CRM); 6.25 ppm, after 24 hours",5
same,acute mortality rating,"Citrus Rust Mite (CRM); 12.5 ppm, after 24 hours",7
same,acute mortality rating,"Citrus Rust Mite (CRM); 25 ppm, after 24 hours",9 (91-100 percent mortality)
same,acute mortality rating,"Citrus Rust Mite (CRM); 50 ppm, after 24 hours",9 (91-100 percent mortality)
same,acute mortality rating,"Citrus Rust Mite (CRM); 100 ppm, after 24 hours",9 (91-100 percent mortality)
same,average mortality rating,Eastern Tent Caterpillar [7]; 250 ppm,0 (0-10 percent)
same,average mortality rating,Eastern Tent Caterpillar [7]; 500 ppm,0 (0-10 percent)
same,average mortality rating,Eastern Tent Caterpillar [7]; 1000 ppm,0 (0-10 percent)
same,average mortality rating,"Armyworm, P. Unipuncta [8]; 125 ppm",2
same,average mortality rating,"Armyworm, P. Unipuncta [8]; 250 ppm",4
same,average mortality rating,"Armyworm, P. Unipuncta [8]; 500 ppm",2
same,average mortality rating,Walnut Caterpillar [9]; 50 ppm,0 (0-10 percent)
same,average mortality rating,Walnut Caterpillar [9]; 100 ppm,1
same,average mortality rating,Walnut Caterpillar [9]; 250 ppm,2
same,average mortality rating,Bagworms [10]; 500 ppm,1
same,average mortality rating,Bagworms [10]; 750 ppm,0 (0-10 percent)
same,average mortality rating,Bagworms [10]; 1000 ppm,1
same,average mortality rating,Bagworms [10]; 1500 ppm,0 (0-10 percent)
same,average mortality rating,Bagworms [10]; 2500 ppm,1
same,average mortality rating,Bagworms [10]; 5000 ppm,1
same,average mortality rating,Elm Leaf Beetle [11]; 125 ppm,0 (0-10 percent)
same,average mortality rating,Elm Leaf Beetle [11]; 250 ppm,0 (0-10 percent)
same,average mortality rating,Elm Leaf Beetle [11]; 500 ppm,3
same,average mortality rating,[12]; 10 ppm,0 (0-10 percent)
same,average mortality rating,[12]; 25 ppm,4
same,average mortality rating,[12]; 50 ppm,4
